In patent US20080254155A1, “Use of Ginkgo Biloba Extract in Preparation of a Composition for Lowering Cholesterol” (SHANGHAI BIOCHIP CO., LTD, priority 2005, published 2008):

System: HepG2 cells
Test: Cellular cholesterol in HepG2 cells (cholesterol test kit)
Assay type: cell-based, human
Details: HepG2, 1 μM lovastatin, 6-hr culture
Description: 2) Cell Culture and Treatment • (1) Cell Source: HepG2 ATCC • (2) Condition of Culture • Medium: MEM (Minimum essential medium)+10% FBS • Incubation: 37° C., 5% CO2 • Passage and Collection: 0.05% trypsin+0.02% EDTA • (3) Cell Treatment:
Cells were cultured in petri dishes of φ×10 cm (falcon) and grown to the desired proliferation, then detached and transferred to a 6-well plate (falcon). The cells were allowed to adhere and proliferate to the desired density (about 60%-70% confluence), and then treated and grouped as indicated in the table below.
In order to minimize the interference from the cytokines and lipids in serum without sacrificing the growth, the medium was replaced with MEM+2% FBS during treatment.
For every batch of cells, each treatment was repeated in 6 replicates. The cells were treated at different time points and collected at the same time.
The cholesterol test kit from Shanghai JieMen Biotechnology Joint-Corporate was used in accordance to the manufacturer's instruction.

Question: `CC[C@H](C)C(=O)O[C@H]1C[C@@H](C)C=C2C=C[C@H](C)[C@H](CC[C@@H]3C[C@@H](O)CC(=O)O3)[C@H]21` [Positive Control, lovastatin] was tested. Which Cellular cholesterol did it give?
Answer: 34.23 ± 2.38 μg/mg protein
